Assay results taken from patent US20220023386A1, “METHOD FOR THE TREATMENT OR PREVENTION OF OSTEOARTHRITIS” (Chondropeptix B.V., priority 2016, published 2022).

Columns and labels:
Assay in all cases: Expression of OA chondrocyte phenotype marker genes by RT-qPCR after peptide exposure
Type in all cases: cell-based, human
[1] = system: OA articular chondrocytes; design: key to ADAMTS5 expression: [+] denotes a significantly increased expression of chondrogenic marker BAPX1/NKX3.2 or a decreased expression of OA chondrocyte phenotypic markers ALP, MMP13, ADAMTS5, COX2, COL10A and RUNX2 in OA articular chondrocytes, in comparison to untreated OA articular chondrocytes.; [−] denotes the absence of a significant effort or a significantly decreased expression of chondrogenic marker BAPX1/NKX3.2 or an increased expression of OA chondrocyte phenotypic markers ALP, MMP13, ADAMTS5, COX2, COL10A and RUNX2 in OA articular chondrocytes, in comparison to untreated OA articular chondrocytes; conditions: for suppression of the OA chondrocyte phenotype: independent of the tested concentration (1000, 100, 10 and 1 nM were tested); for ADAMTS5 expression: Table 3, N- and C-terminally truncated peptides, vs untreated OA articular chondrocytes
[2] = system: OA articular chondrocytes; design: key: [+] denotes a significantly increased expression of chondrogenic marker BAPX1/NKX3.2 or a decreased expression of OA chondrocyte phenotypic markers ALP, MMP13, ADAMTS5, COX2, COL10A and RUNX2 in OA articular chondrocytes, in comparison to untreated OA articular chondrocytes.; [−] denotes the absence of a significant effort or a significantly decreased expression of chondrogenic marker BAPX1/NKX3.2 or an increased expression of OA chondrocyte phenotypic markers ALP, MMP13, ADAMTS5, COX2, COL10A and RUNX2 in OA articular chondrocytes, in comparison to untreated OA articular chondrocytes; conditions: vs untreated OA articular chondrocytes
[3] = system: OA articular chondrocytes; design: key: [+] denotes a significantly increased expression of chondrogenic marker BAPX1/NKX3.2 or a decreased expression of OA chondrocyte phenotypic markers ALP, MMP13, ADAMTS5, COX2, COL10A and RUNX2 in OA articular chondrocytes, in comparison to untreated OA articular chondrocytes.; [−] denotes the absence of a significant effort or a significantly decreased expression of chondrogenic marker BAPX1/NKX3.2 or an increased expression of OA chondrocyte phenotypic markers ALP, MMP13, ADAMTS5, COX2, COL10A and RUNX2 in OA articular chondrocytes, in comparison to untreated OA articular chondrocytes; conditions: Table 2 (FIGS. 2-8), peptide 10 nM, 24 hours, vs untreated OA articular chondrocytes
Description: The action of 20-mer peptides (10 nM) of SEQ ID NO: 2-15 (peptides with 1 amino acids intervals (19 amino acid overlap)) and SEQ ID NO:49 on the expression of the indicated genes was determined on a validated pool of passage 2 OA human articular chondrocytes (n=18) and compared to full-length recombinant BMP-7 (1 nM). Samples were harvested after 24 hours and analyzed for indicated genes by RT-qPCR (corrected for 28S rRNA expression and relative to control conditions (no peptide exposure)). In the graphs, numbers on the x-axis represent individual peptides according to their SEQ ID NO:, error bars represent mean±SEM, statistical differences were calculated (one-way ANOVA with bonferroni correction) to control condition. *=p<0.05 lower than control condition for COL10A1, ALP, RUNX2, COX-2, MMP13 and ADAMTS5 and higher than control condition for BAPX1/NKX3.2. Random peptide is a peptide according to SEQ ID NO: 49 with amino acid sequence […].

[4] = Table 3, N- and C-terminally truncated peptides
[5] = Table 2 (FIGS. 2-8), peptide 10 nM, 24 hours

Substance | suppression of the OA chondrocyte phenotype [1] | ADAMTS5 expression [3] | ALP expression [3] | BAPX1/NKX3.2 expression [3] | COL10A expression [3] | COX-2 expression [3] | RUNX2 expression [3] | MMP13 expression [2, 5] | further results
IAPEGYAAYYSEGESAFPLN (homo sapiens) [SEQ ID NO: 4] | efficiently suppressed |  |  |  |  |  |  |  | 
23 (AYYSEGESAFPLNS; homo sapiens) [compound 23] |  |  |  |  |  |  |  |  | ALP expression [2, 4]: +; BAPX1/NKX3.2 expression [2, 4]: +; COL10A expression [2, 4]: +; COX-2 expression [2, 4]: +; MMP13 expression [2, 4]: +; RUNX2 expression [2, 4]: +; ADAMTS5 expression [1]: +
20 (GYAAYYSEGESAFPLNS; homo sapiens) [compound 20] |  |  |  |  |  |  |  |  | ALP expression [2, 4]: +; BAPX1/NKX3.2 expression [2, 4]: +; COL10A expression [2, 4]: +; COX-2 expression [2, 4]: +; MMP13 expression [2, 4]: +; RUNX2 expression [2, 4]: +; ADAMTS5 expression [1]: +
7 (EGYAAYYSEGESAFPLNSYM; homo sapiens) [compound 7] |  | + | + | + | + | + | + |  | 
AAYYSEGESAFPLNSYMNAT (homo sapiens) [SEQ ID NO: 10] | efficiently suppressed |  |  |  |  |  |  |  | 
8 (GYAAYYSEGESAFPLNSYMN; homo sapiens) [compound 8] |  | + | + | + | + | + | + | + | 
6 (PEGYAAYYSEGESAFPLNSY; homo sapiens) [compound 6] |  | + | + | + | + | + | + | − | 
30 (YSEGESAFPLNSYMNAT; homo sapiens) [compound 30] |  |  |  |  |  |  |  |  | ALP expression [2, 4]: +; BAPX1/NKX3.2 expression [2, 4]: +; COL10A expression [2, 4]: +; COX-2 expression [2, 4]: +; MMP13 expression [2, 4]: +; RUNX2 expression [2, 4]: +; ADAMTS5 expression [1]: +
4 (IAPEGYAAYYSEGESAFPLN; homo sapiens) [compound 4] |  | − | − | − | − | + | − | − | 
YAAYYSEGESAFPLNSYMNA (homo sapiens) [SEQ ID NO: 9] | efficiently suppressed |  |  |  |  |  |  |  | 
APEGYAAYYSEGESAFPLNS (homo sapiens) [SEQ ID NO: 5] | efficiently suppressed |  |  |  |  |  |  |  | 
36 (EGYAAYYSEGESAFPLNSYMNATNHA; homo sapiens) [compound 36] |  |  |  |  |  |  |  |  | ALP expression [2, 4]: +; BAPX1/NKX3.2 expression [2, 4]: +; COL10A expression [2, 4]: +; COX-2 expression [2, 4]: +; MMP13 expression [2, 4]: +; RUNX2 expression [2, 4]: +; ADAMTS5 expression [1]: +
2 (WIIAPEGYAAYYSEGESAFP; homo sapiens) [compound 2] |  | − | − | − | − | + | − | − | 
EGYAAYYSEGESAFPLNSYM (homo sapiens) [SEQ ID NO: 7] | efficiently suppressed |  |  |  |  |  |  |  | 
14 (SEGESAFPLNSYMNATNHAI; homo sapiens) [compound 14] |  | − | − | − | − | − | + | − | 
17 (APEGYAAYYSEGESAFPLNS; homo sapiens) [compound 17] |  |  |  |  |  |  |  |  | ALP expression [2, 4]: +; BAPX1/NKX3.2 expression [2, 4]: +; COL10A expression [2, 4]: +; COX-2 expression [2, 4]: +; MMP13 expression [2, 4]: −; RUNX2 expression [2, 4]: +; ADAMTS5 expression [1]: +

Substance | suppression of the OA chondrocyte phenotype [1] | ADAMTS5 expression [3] | ALP expression [3] | BAPX1/NKX3.2 expression [3] | COL10A expression [3] | COX-2 expression [3] | RUNX2 expression [3] | MMP13 expression [2, 5] | further results
AYYSEGESAFPLNSYMNATN (homo sapiens) [SEQ ID NO: 11] | efficiently suppressed |  |  |  |  |  |  |  | 
9 (YAAYYSEGESAFPLNSYMNA; homo sapiens) [compound 9] |  | + | + | + | + | + | + | + | 
5 (APEGYAAYYSEGESAFPLNS; homo sapiens) [compound 5] |  | + | + | + | + | + | + | − | 
3 (IIAPEGYAAYYSEGESAFPL; homo sapiens) [compound 3] |  | − | − | − | − | + | − | − | 
SEGESAFPLNSYMNATNHAI (homo sapiens) [SEQ ID NO: 14] | efficiently suppressed |  |  |  |  |  |  |  | 
YYSEGESAFPLNSYMNATNH (homo sapiens) [SEQ ID NO: 12] | efficiently suppressed |  |  |  |  |  |  |  | 
11 (AYYSEGESAFPLNSYMNATN; homo sapiens) [compound 11] |  | + | + | + | + | + | + | + | 
IIAPEGYAAYYSEGESAFPL (homo sapiens) [SEQ ID NO: 3] | efficiently suppressed |  |  |  |  |  |  |  | 
PEGYAAYYSEGESAFPLNSY (homo sapiens) [SEQ ID NO: 6] | efficiently suppressed |  |  |  |  |  |  |  | 
15 (EGESAFPLNSYMNATNHAIV; homo sapiens) [compound 15] |  | − | − | − | − | − | + | − | 
WIIAPEGYAAYYSEGESAFP (homo sapiens) [SEQ ID NO: 2] | efficiently suppressed |  |  |  |  |  |  |  | 
EGESAFPLNSYMNATNHAIV (homo sapiens) [SEQ ID NO: 15] | efficiently suppressed |  |  |  |  |  |  |  | 
10 (AAYYSEGESAFPLNSYMNAT; homo sapiens) [compound 10] |  | + | + | + | + | + | + | + | 
13 (YSEGESAFPLNSYMNATNHA; homo sapiens) [compound 13] |  | + | + | + | + | + | + | + | 
YSEGESAFPLNSYMNATNHA (homo sapiens) [SEQ ID NO: 13] | efficiently suppressed |  |  |  |  |  |  |  | 
12 (YYSEGESAFPLNSYMNATNH; homo sapiens) [compound 12] |  | + | + | + | + | + | + | + | 
